The test system of data set [1] is Pkd1^null/null embryonic kidneys. The data set can be described thus: Embryonic kidney organ culture model of PKD (8-Br-cAMP-induced cyst formation, H&E sections). It is filed as cell-based, mouse. The settings on record: 96 hours of culture. The method, then: Embryonic mice kidneys of E13.5 were dissected out and cultured in media^29 (1% FBS, 5 mg/ml Transferin, 0.05 mM Sodium Selenite, 100 nM hydrocortisone, 2 nM T3, 25 ng/ml PGE1, 100 U/ml Penicillin/streptomycin, 100 mM 8-Br-cAMP) in Center-Well Organ Culture Dish (BD Labware, Franklin Lakes, N.J.). The following day, the kidneys from the same embryo were treated with either […] Met Kinase Inhibitor (Calbiochem, La Jolla, CA) or DMSO (the same volume with Met Kinase Inhibitor). The media were changed everyday with the same additives as above. After […], kidneys were fixed by 4% PFA, and embedded in paraffin. Paraffin sections were stained with hematoxylin and eosin.
Embryonic mice kidneys of E13.5 were dissected out and cultured in media (1% FBS, 5 mg/ml Transferin, 0.05 mM Sodium Seelenite, 100 nM hydrocortisone, 2 nM T3, 25ng/ml PGE1, 100 U/ml Penicillin/streptomycin, 100 mM 8-Br-cAMP) in Center-Well Organ Culture Dish (BD Labware, Franklin Lakes, N.J.). The following day, the kidneys from the same embryo were treated with either 2 microgram/ml c-MET blocking antibody (R&D Systems, Minneapolis, Minn.) or PBS (the same volume with c-Met blocking antibody). The media were changed everyday with the same additives as above. After 4 days, kidneys were fixed by 4% PFA, and embedded in paraffin. Paraffin sections were stained with hematoxylin and eosin.
E13.5 embryonic kidneys were put in organ culture along with 100 μM 8-Br-cAMP, with or without 5 μM c-MET inhibitor (SU11274, from Calbiochem). (B) E13.5 embryonic kidneys were put in organ culture along with 100 mM 8-Br-cAMP, with or without 5 μg/ml c-MET neutralizing antibody (R&D Systems). (C) E13.5 embryonic kidneys were put in organ culture along with 100 mM 8-Br-cAMP, with or without 0.5 μM c-MET inhibitor (PHA665752, from Tocris, UK). Hematoxylin & Eosin stained sections of kidneys are shown after 96 hours of culture.

In data set [2] the test system is mTOR phosphorylation in Pkd1^null/null cells. The data set can be described thus: mTOR phosphorylation (Western blot phospho-mTOR / total mTOR) in Pkd1 null/null cells. In kind it is cell-based, mouse. The conditions noted are these: c-Met inhibitor 5 mM for 40 min (FIG. 1 legend) / 5 μM, 4 hours (Example 5), FIG. 1a, b. The method, then:
Pkd1 wild type (WT) and Pkd1^null/null cell line were isolated from embryonic day 15.5 kidneys from a cross of Pkd1^null/+ mice that also carry a temperature-sensitive simian virus 40 (SV40) large T-antigen transgene, similar with the protocol described in reference 23. Wt and Pkd1^null/null cells were cultured in Dulbecco's modified Eagle medium containing 2% fetal bovine serum, 0.75 μg/L γ-interferon, 1.0 g/L insulin, 0.67 mg/L sodium selenite, 0.55 g/L transferrin, 36 ng/ml hydrocortisone, 100 U/ml Penicillin/streptomycin under 33° C. and 5% CO2^23.
Immunoprecipitation and western-blot were performed using whole cell lysates unless otherwise specified. Confluent cells were collected, washed with PBS, lysed with lysis buffer (20 mM Tris/HCl, 1 mM EDTA, 150 mM NaCl, 1% Triton X-100) containing proteinase inhibitor cocktail tablet (Roche #1697498, Mannheim, Germany) at 4° C. for 30 minutes. After centrifugation at 13,000 rpm for 15 minutes, supernatants were incubated with specific antibody at 4° C. for 1 hour, followed by incubation with Protein G conjugated beads (Pierce Biotechnology, IL) at 4° C. for 2 hours, washed in lysis buffer. Samples were running on 7.5% acrylamide gel, transferred to PVDF membranes and visualized by immunoblotting with respective antibodies. […]
In general terms: Immunoblotting shows a protein as a band on a membrane.

Setting [3] is: FIG. 6, Pkd1^null/null kidneys at E15.5, 10 mM 8-Br-cAMP, 5 μM c-MET inhibitor.

Entries after “also recorded” stand apart in the source; their conditions may differ.

As to `Cc1[nH]c(/C=C2\C(=O)Nc3ccc(S(=O)(=O)N(C)c4cccc(Cl)c4)cc32)c(C)c1C(=O)N1CCN(C)CC1` [SU11274, (3Z)-N-(3-chlorophenyl)-3-({3,5-dimethyl-4-[(4-methylpiperazin-1-yl)carbonyl]-1H-pyrrol-2-yl}methylene)-N-methyl-2-oxoindoline-5-sulfonamide], the cyst formation entry in data set [1] (setting [3]) was “reduced cyst formation in organ culture by Pkd1^null/null mutant kidneys to the basal level observed in WT kidneys; also recorded: decreased”; in data set [1] (FIG. 7A, E13.5 Pkd1 null/null kidneys, 100 μM 8-Br-cAMP, 5 μM) it was “decreased”. For the same compound, the “size and number of cysts” value in data set [1] (setting [3]) was “decreased”. The effect on nephrogenesis result is reported as “no apparent effect” in data set [1] (FIG. 6, wild type and Pkd1^null/null kidneys, 5 μM c-MET inhibitor, listed as c-MET inhibitor); “did not have a marked effect” in data set [1] (FIG. 6, wild type and Pkd1^null/null kidneys, 5 μM c-MET inhibitor, listed as c-Met inhibitor); “no apparent effect” in data set [1] (FIG. 7A, E13.5 kidneys, 100 μM 8-Br-cAMP, 5 μM). Moreover, the mTOR phosphorylation result in data set [2] is on record as “inhibited”; in data set [2] (listed as Met Kinase Inhibitor) it was “reduced mTOR phosphorylation in Pkd1^null/null cells, to a baseline level observed in WT cells”.
With `Cc1[nH]c(/C=C2\C(=O)Nc3ccc(S(=O)(=O)Cc4c(Cl)cccc4Cl)cc32)c(C)c1C(=O)N1CCC[C@@H]1CN1CCCC1` [PHA665752, (2R)-1-[[5-[(Z)45-[[(2,6-Dichlorophenyl)methyl]sulfony 1]-1,2-dihydro-2-oxo-3H-indo1-3-ylidenelmethyl]-2,4-dimethyl-1H-pyrrol-3-yl]carbonyl]-2-(1-pyrrolidinylmethyl) pyrrolidone], the cyst formation entry in data set [1] (FIG. 7C, E13.5 Pkd1 null/null kidneys, 100 mM 8-Br-cAMP, 0.5 μM) is recorded as “decreased”. In addition, the effect on nephrogenesis entry in data set [1] (FIG. 7C, E13.5 kidneys, 100 mM 8-Br-cAMP, 0.5 μM) is “no apparent effect”.
